Assay results: patent publication US9809574B2, “Isoindoline or isoquinoline compounds, a process for their preparation and pharmaceutical compositions containing them” (LES LABORATOIRES SERVIER, priority 2013, dated 2017)
Where a name gives a salt, the structure may show the parent alone.

What was measured:
[1] = molecular target: Bcl-2 protein (histag-Bcl-2, UniProtKB P10415) (Homo sapiens (Human), UniProt P10415); experiment: Inhibition of Bcl-2 by the fluorescence polarisation technique; assay type: binding; details: fluorescence polarisation test; incubation for 2 hours; read-out: IC50 (nM) Bcl-2 FP
Text: For partial inhibitors, the percentage fluorescence polarisation inhibition for a given concentration of the test compound is indicated.

[2] = test system: RS4; 11 leukaemia cell line; experiment: In vitro cytotoxicity, Microculture Tetrazolium Assay (MTT); assay type: cell-based; details: Homo sapiens, 11 cells exposed for 48 hours
Description: The cytotoxicity studies were carried out on the RS4; 11 leukaemia cell line and on H146 small Cell Lung Carcinoma cell line. The cells are distributed onto microplates and exposed to the test compounds for 48 hours. The cell viability is then quantified by a colorimetric assay, the Microculture Tetrazolium Assay (Cancer Res., 1987, 47, 939-942).

Sequence of Bcl-2 protein (P10415 whole entry): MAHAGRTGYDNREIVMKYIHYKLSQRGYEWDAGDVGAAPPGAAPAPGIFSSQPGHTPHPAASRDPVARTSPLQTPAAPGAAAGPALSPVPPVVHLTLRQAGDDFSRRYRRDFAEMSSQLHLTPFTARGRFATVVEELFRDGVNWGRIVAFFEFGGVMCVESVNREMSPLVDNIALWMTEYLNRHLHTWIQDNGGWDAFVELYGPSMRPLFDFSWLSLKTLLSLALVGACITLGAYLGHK

Compound | IC50 [1] | IC50 [2]
CCc1ccc(OC(=O)N2CCc3cc(-c4cc(C(=O)N(C)c5ccc(O)cc5)c5n4CCCC5)c(C(=O)N4Cc5ccccc5C[C@H]4CN4CCOCC4)cc3C2)cc1 [Example 126, 4-Ethylphenyl 6-{1-[(4-hydroxyphenyl)(methyl)carbamoyl]-5,6,7,8-tetrahydroindolizin-3-yl}-7-[(3S)-3-(morpholin-4-ylmethyl)-1,2,3,4-tetrahydroisoquinoline-2-carbonyl]-1,2,3,4-tetrahydroisoquinoline-2-carboxylate] | 5.9 nM | 5.2 nM
CN(C(=O)c1cc(-c2cc3c(cc2C(=O)N2Cc4ccccc4C[C@H]2CN2CCOCC2)CN(C(=O)Oc2ccc(OC(F)(F)F)cc2)CC3)n2c1CCCC2)c1ccc(O)cc1 [Example 125, 4-(Trifluoromethoxy)phenyl 6-{1-[(4-hydroxyphenyl)(methyl)carbamoyl]-5,6,7,8-tetrahydroindolizin-3-yl}-7-[(3S)-3-(morpholin-4-ylmethyl)-1,2,3,4-tetrahydroisoquinoline-2-carbonyl]-1,2,3,4-tetrahydroisoquinoline-2-carboxylate] | 8.7 nM | 49 nM
C[C@@H]1Cc2ccccc2CN1C(=O)c1cc2c(cc1-c1cc(C(=O)N(C)c3ccc(O)cc3)c3n1CCCC3)CN(C(=O)COc1ccccc1)C2 [Example 52, N-(4-Hydroxyphenyl)-N-methyl-3-{6-[(3R)-3-methyl-1,2,3,4-tetrahydroisoquinoline-2-carbonyl]-2-(2-phenoxyacetyl)-2,3-dihydro-1H-isoindol-5-yl}-5,6,7,8-tetrahydroindolizine-1-carboxamide] | 3.8 nM | 56 nM
Cc1c(C(=O)N(C)c2ccc(O)cc2)cc(-c2cc3c(cc2C(=O)N2Cc4ccccc4C[C@H]2CN2CCOCC2)CN(C(=O)Oc2ccc4[nH]ccc4c2)CC3)n1C [Example 577, 1H-Indol-5-yl 6-{4-[(4-hydroxyphenyl)(methyl)carbamoyl]-1,5-dimethyl-1H-pyrrol-2-yl}-7-[(3S)-3-(morpholin-4-ylmethyl)-1,2,3,4-tetrahydroisoquinoline-2-carbonyl]-1,2,3,4-tetrahydroisoquinoline-2-carboxylate] | 5.9 nM | 4.7 nM
Cc1ccc(CC(=O)N2CCc3cc(-c4cc(C(=O)N(C)c5ccc(O)cc5)c5n4CCCC5)c(C(=O)N4Cc5ccccc5C[C@H]4C)cc3C2)cc1 [Example 54, N-(4-Hydroxyphenyl)-N-methyl-3-{7-[(3R)-3-methyl-1,2,3,4-tetrahydroisoquinoline-2-carbonyl]-2-[2-(4-methylphenyl)acetyl]-1,2,3,4-tetrahydroisoquinolin-6-yl}-5,6,7,8-tetrahydroindolizine-1-carboxamide] | 4 nM | 2.4 nM
CCS(=O)(=O)N1CCc2cc(-c3cc(C(=O)N(C)c4ccc(O)cc4)c4n3CCCC4)c(C(=O)N3Cc4ccccc4C[C@H]3C)cc2C1 [Example 56, 3-[2-(Ethanesulfonyl)-7-[(3R)-3-methyl-1,2,3,4-tetrahydroisoquinoline-2-carbonyl]-1,2,3,4-tetrahydroisoquinolin-6-yl]-N-(4-hydroxyphenyl)-N-methyl-5,6,7,8-tetrahydroindolizine-1-carboxamide] | 3.8 nM | 59 nM
C[C@@H]1Cc2ccccc2CN1C(=O)c1cc2c(cc1-c1cc(C(=O)N(c3ccc(O)cc3)c3cnc4c(ccn4C)c3)c3n1CCCC3)CN(C(=O)COc1ccccc1)C2 [Example 158, N-(4-Hydroxyphenyl)-3-{6-[(3R)-3-methyl-1,2,3,4-tetrahydroisoquinoline-2-carbonyl]-2-(2-phenoxyacetyl)-2,3-dihydro-1H-isoindol-5-yl}-N-{1-methyl-1H-pyrrolo[2,3-b]pyridin-5-yl}-5,6,7,8-tetrahydroindolizine-1-carboxamide] | 4.6 nM | 3.5 nM
Cc1c(C(=O)N(C)c2ccc(O)cc2)cc(-c2cc3c(cc2C(=O)N2Cc4ccccc4C[C@H]2C)CN(C(=O)Oc2cccc(C(=O)O)c2)CC3)n1C [Example 715, 3-(6-{4-[(4-Hydroxyphenyl)(methyl)carbamoyl]-1,5-dimethyl-1H-pyrrol-2-yl}-7-[(3R)-3-methyl-1,2,3,4-tetrahydroisoquinoline-2-carbonyl]-1,2,3,4-tetrahydroisoquinoline-2-carbonyloxy)benzoic acid] | 2.2 nM | > 150 nM
C[C@@H]1Cc2ccccc2CN1C(=O)c1cc2c(cc1-c1cc(C(=O)N(C)c3ccc(O)cc3)c3n1CCCC3)CN(C(=O)N(C)Cc1ccccc1)C2 [Example 85, N-Benzyl-5-{1-[(4-hydroxyphenyl)(methyl)carbamoyl]-5,6,7,8-tetrahydroindolizin-3-yl}-N-methyl-6-[(3R)-3-methyl-1,2,3,4-tetrahydroisoquinoline-2-carbonyl]-2,3-dihydro-1H-isoindole-2-carboxamide] | 6.1 nM | 58 nM
CN(C(=O)c1cc(-c2cc3c(cc2C(=O)N2Cc4ccccc4C[C@H]2CN2CCOCC2)CN(C(=O)NC(C)(C)C)C3)n2c1CCCC2)c1ccc(O)cc1 [Example 17, N-tert-Butyl-5-{1-[(4-hydroxyphenyl)(methyl)carbamoyl]-5,6,7,8-tetrahydroindolizin-3-yl}-6-[(3S)-3-(morpholin-4-ylmethyl)-1,2,3,4-tetrahydroisoquinoline-2-carbonyl]-2,3-dihydro-1H-isoindole-2-carboxamide hydrochloride] | 91 nM | 1760 nM
Cc1c(C(=O)N(C)c2ccc(O)cc2)cc(-c2cc3c(cc2C(=O)N2Cc4ccccc4C[C@H]2CN2CCOCC2)CN(C(=O)CC24CC5CC(CC(C5)C2)C4)CC3)n1C [Example 798, 5-{2-[2-(Adamantan-1-yl)acetyl]-7-[(3S)-3-(morpholin-4-ylmethyl)-1,2,3,4-tetrahydroisoquinoline-2-carbonyl]-1,2,3,4-tetrahydroisoquinolin-6-yl}-N-(4-hydroxyphenyl)-N,1,2-trimethyl-1H-pyrrole-3-carboxamide] | 9.1 nM | 76 nM
CN(C(=O)c1cc(-c2cc3c(cc2C(=O)N2Cc4ccccc4C[C@H]2CN2CCOCC2)CNCC3)n2c1CCCC2)c1ccc(O)cc1 [Example 2, N-(4-Hydroxyphenyl)-N-methyl-3-{7-[(3S)-3-(morpholin-4-ylmethyl)-1,2,3,4-tetrahydroisoquinoline-2-carbonyl]-1,2,3,4-tetrahydroisoquinolin-6-yl}-5,6,7,8-tetrahydroindolizine-1-carboxamide dihydrochloride] | 397 nM | > 1880 nM

Continued by falling IC50 [1], values first:

IC50 [1] | Compound | IC50 [2]
30 nM | C[C@@H]1Cc2ccccc2CN1C(=O)c1cc2c(cc1-c1cc(C(=O)N(C)c3ccc(O)cc3)c3n1CCCC3)CN(C(=O)Cc1ccc(OC(F)(F)F)cc1)C2 [Example 26, N-(4-Hydroxyphenyl)-N-methyl-3-{6-[(3R)-3-methyl-1,2,3,4-tetrahydroisoquinoline-2-carbonyl]-2-{2-[4-(trifluoromethoxy)phenyl]acetyl}-2,3-dihydro-1H-isoindol-5-yl}-5,6,7,8-tetrahydroindolizine-1-carboxamide] | 86 nM
5.5 nM | COc1ccc(CC(=O)N2Cc3cc(C(=O)N4Cc5ccccc5C[C@H]4C)c(-c4cc(C(=O)N(C)c5ccc(O)cc5)c5n4CCCC5)cc3C2)cc1 [Example 51, N-(4-Hydroxyphenyl)-3-{2-[2-(4-methoxyphenyl)acetyl]-6-[(3R)-3-methyl-1,2,3,4-tetrahydroisoquinoline-2-carbonyl]-2,3-dihydro-1H-isoindol-5-yl}-N-methyl-5,6,7,8-tetrahydroindolizine-1-carboxamide] | 23 nM
4 nM | Cc1c(C(=O)N(C)c2ccc(O)cc2)cc(-c2cc3c(cc2C(=O)N2Cc4ccccc4C[C@H]2CN2CCOCC2)CN(C(=O)/C=C/c2ccccc2)CC3)n1C [Example 131, N-(4-Hydroxyphenyl)-N,1,2-trimethyl-5-{7-[(3S)-3-(morpholin-4-ylmethyl)-1,2,3,4-tetrahydroisoquinoline-2-carbonyl]-2-[(2E)-3-phenylprop-2-enoyl]-1,2,3,4-tetrahydroisoquinolin-6-yl}-1H-pyrrole-3-carboxamide] | 11 nM
4 nM | CN(C(=O)c1cc(-c2cc3c(cc2C(=O)N2Cc4ccccc4C[C@H]2CN2CCOCC2)CN(C(=O)Nc2ccccc2)CC3)n2c1CCCC2)c1ccc(O)cc1 [Example 77, 6-{1-[(4-Hydroxyphenyl)(methyl)carbamoyl]-5,6,7,8-tetrahydroindolizin-3-yl}-7-[(3S)-3-(morpholin-4-ylmethyl)-1,2,3,4-tetrahydroisoquinoline-2-carbonyl]-N-phenyl-1,2,3,4-tetrahydroisoquinoline-2-carboxamide] | 84 nM
3.7 nM | C[C@@H]1Cc2ccccc2CN1C(=O)c1cc2c(cc1-c1cc(C(=O)N(C)c3ccc(O)cc3)c3n1CCCC3)CCN(C(=O)Nc1ccccc1)C2 [Example 71, 6-{1-[(4-Hydroxyphenyl)(methyl)carbamoyl]-5,6,7,8-tetrahydroindolizin-3-yl}-7-[(3R)-3-methyl-1,2,3,4-tetrahydroisoquinoline-2-carbonyl]-N-phenyl-1,2,3,4-tetrahydroisoquinoline-2-carboxamide] | 9.9 nM
3.6 nM | C[C@@H]1Cc2ccccc2CN1C(=O)c1cc2c(cc1-c1cc(C(=O)N(C)c3ccc(O)cc3)c3n1CCCC3)CCN(S(=O)(=O)Cc1ccccc1)C2 [Example 40, N-(4-Hydroxyphenyl)-N-methyl-3-{7-[(3R)-3-methyl-1,2,3,4-tetrahydroisoquinoline-2-carbonyl]-2-phenylmethanesulfonyl-1,2,3,4-tetrahydroisoquinolin-6-yl}-5,6,7,8-tetrahydroindolizine-1-carboxamide] | 34 nM
